From ChEMBL document CHEMBL1150083, “The Racemization of Crinitol. Resolution of Crinitol and of 3-Nonen-2-ol Enantiomers by Recycle-HPLC, via MTPA Esters” (J Nat Prod, 1995)
Activity calls are given as the source filed them.

What was measured:
Format in all cases: functional, organism-based
Bacillus subtilis = assay: Antimicrobial activity against Bacillus subtilis
[1] = test system: Corynebacterium ammoniagenes; assay: Antimicrobial activity against Brevibacterium ammoniagenes
Staphylococcus aureus = assay: Antimicrobial activity against Staphylococcus aureus
Streptococcus mutans = assay: Antimicrobial activity against Streptococcus mutans
Cutibacterium acnes = assay: Antimicrobial activity against Propionibacterium acnes

Measured: Activity

CC(C)=CCC/C(C)=C/[C@@H](O)C/C(C)=C/CC/C(C)=C/CO
active: all assays above

CC(C)=CCC/C(C)=C/[C@H](O)C/C(C)=C/CC/C(C)=C/CO
active: all assays above
